# Results reported in ChEMBL document CHEMBL5252570, “Synthesis and biological evaluation of 2,5-disubstituted furan derivatives containing 1,3-thiazole moiety as potential α-glucosidase inhibitors” (Bioorg Med Chem Lett, 2023).
# Active and inactive are the calls of the source. The rule behind the calls is not given here.
# Legend:
# [1] = Cytotoxicity against human HEK293 cells assessed as inhibition of cell growth at 100 uM by CCK-8 assay relative to control; assay type: toxicity, cell-based; conditions: read-out: Activity
# Alpha glucosidase [2] = biological target: T1, Alpha glucosidase (Homo sapiens, UniProt O43451+P10253+P14410+Q2M2H8); assay: Non-competitive inhibition of alpha glucosidase (unknown origin) assessed as inhibition constant using pNPG as substrate by Dixon plot analysis; assay type: protein assay
# Alpha glucosidase [3] = biological target: T1, Alpha glucosidase; assay: Inhibition of alpha glucosidase (unknown origin); assay type: protein assay
# Alpha glucosidase [4] = biological target: T1, Alpha glucosidase; assay: Inhibition of alpha glucosidase (unknown origin) at 50 uM relative to control; assay type: protein assay
# [5] = Cytotoxicity against human HepG2 cells assessed as inhibition of cell growth at 100 uM by CCK-8 assay relative to control; assay type: toxicity, cell-based; conditions: read-out: Activity
# [6] = Cytotoxicity against mouse RAW264.7 cells assessed as inhibition of cell growth at 100 uM by CCK-8 assay relative to control; assay type: toxicity, cell-based; conditions: read-out: Activity
# Alpha glucosidase [7] = biological target: T1, Alpha glucosidase; assay: Competitive inhibition of alpha glucosidase (unknown origin) using pNPG as substrate by Lineweaver-Burk plot analysis; assay type: protein assay
# Alpha glucosidase [8] = biological target: T1, Alpha glucosidase; assay: Inhibition of alpha glucosidase (unknown origin) using p-nitrophenyl glucopyranoside as substrate pre incubated for 10 mins followed by substrate addition and measured after 30 mins by plate reader analysis; assay type: protein assay
# Alpha glucosidase [9] = biological target: T1, Alpha glucosidase; assay: Potency index, […] for inhibition of alpha glucosidase (unknown origin); assay type: protein assay
SMILES,IC50 (Alpha glucosidase [3]) [µM],inhibition (Alpha glucosidase [4]) [%],also measured
O=C(Nc1nccs1)c1ccc(-c2cccc([N+](=O)[O-])c2)o1,4.12,89.3,inhibition at 100 µM [1]: 28.4%; Ki (Alpha glucosidase [2]): 367.24 µM; inhibition at 100 µM [5]: 13.7%; inhibition at 100 µM [6]: 16.4%; inhibition (Alpha glucosidase [7]): Active
O=C(Nc1nccs1)c1ccc(-c2ccccc2Cl)o1,18.33,59.3,–
O=C(Nc1nccs1)c1ccc(-c2ccccc2)o1,94.033,27.3,–
Cc1nnc(SC(=O)c2ccc(-c3cccc(F)c3)o2)s1,0.082,–,–
COc1ccc(-c2ccc(C(=O)Nc3nccs3)o2)cc1,30.94,59,–
O=C(Nc1nccs1)c1ccc(-c2cccc(Cl)c2)o1,5.871,88.4,–
O=C(Sc1nccs1)c1ccc(-c2ccc(F)cc2F)o1,6.935,86.1,–
O=C(Nc1nccs1)c1ccc(-c2ccc(F)cc2)o1,20.717,67.4,–
O=C(Sc1nccs1)c1ccc(-c2ccc([N+](=O)[O-])cc2)o1,8.934,85.7,–
O=C(Nc1nccs1)c1ccc(-c2c(F)cccc2F)o1,148.2,21.6,–
O=C(Sc1nccs1)c1ccc(-c2ccccc2)o1,2.223,100,–
CC(C)(C)c1cc(/C=N/Nc2nc(-c3ccc(Cl)cc3)cs2)cc(C(C)(C)C)c1O,–,–,IC50 (Alpha glucosidase [8]): 18.23 µM
O=C(Sc1nccs1)c1ccc(-c2ccccc2Cl)o1,1.935,88.2,–
O=C(Sc1nccs1)c1ccc(-c2ccccc2F)o1,5.97,83.6,–
C[C@H]1O[C@H](O[C@H]2[C@H](O)[C@@H](O)[C@@H](O[C@H]3[C@H](O)[C@@H](O)C(O)O[C@@H]3CO)O[C@@H]2CO)[C@H](O)[C@@H](O)[C@@H]1N[C@H]1C=C(CO)[C@@H](O)[C@H](O)[C@H]1O (stereo not given in full),–,11.5,inhibition (Alpha glucosidase [7]): Active
O=C(Nn1c(-c2cc3ccccc3oc2=O)cs/c1=N\c1ccc(Cl)c(Cl)c1)c1ccccc1O,–,–,IC50 (Alpha glucosidase [8]): 0.12 µM
O=C(Nc1nccs1)c1ccc(-c2ccc([N+](=O)[O-])cc2)o1,4.987,91.5,–
O=C(Nc1nccs1)c1ccc(-c2cccc(F)c2)o1,6.227,88.1,–

SMILES,IC50 (Alpha glucosidase [3]) [µM],inhibition (Alpha glucosidase [4]) [%],also measured
N#C/N=c1\sccn1C(=O)c1ccc(-c2cccc(Cl)c2)o1,1.2,–,–
O=C(Nc1nccs1)c1ccc(-c2ccc(Cl)cc2)o1,14.769,69.1,–
O=C(Sc1nccs1)c1ccc(-c2ccc(Cl)cc2)o1,4.562,84.2,–
O=C(Nc1nccs1)c1ccc(-c2ccc(F)cc2F)o1,77.99,34.1,–
O=C(Sc1nncs1)c1ccc(-c2ccc(Cl)cc2)o1,0.186,–,–
O=C(Sc1nccs1)c1ccc(-c2ccc(F)cc2)o1,–,43.4,–
O=C(Nc1nccs1)c1ccc(-c2ccc(Br)cc2)o1,24.125,74,–
O=C(Nc1nccs1)c1ccc(-c2ccccc2[N+](=O)[O-])o1,26.943,87.7,–
O=C(Sc1nccs1)c1ccc(-c2c(F)cccc2F)o1,8.436,83.6,–
O=C(Sc1nccs1)c1ccc(-c2cccc([N+](=O)[O-])c2)o1,–,20.2,–
Cc1ccc(-c2ccc(C(=O)Nc3nccs3)o2)cc1,26.495,64.6,–
O=C(Sc1nccs1)c1ccc(-c2ccc(Br)cc2)o1,5.283,89.9,–
Cc1ccc(-c2ccc(C(=O)Sc3nccs3)o2)cc1,11.43,80.4,–
O=C(Sc1nccs1)c1ccc(-c2cccc(Cl)c2)o1,2.611,94.4,–
O=C(Nc1nccs1)c1ccc(-c2ccccc2F)o1,19.763,87.6,–
O=C(Sc1nccs1)c1ccc(-c2cccc(F)c2)o1,5.392,87,–
COc1ccc(-c2ccc(C(=O)Sc3nccs3)o2)cc1,14.945,78.6,–
O=C(Sc1nccs1)c1ccc(-c2ccccc2[N+](=O)[O-])o1,0.645,98.5,inhibition at 100 µM [1]: 53.4%; Ratio IC50 (Alpha glucosidase [9]): 701; Ki (Alpha glucosidase [2]): 2.04 µM; inhibition at 100 µM [5]: 47.2%; inhibition at 100 µM [6]: 38.1%
